The conditions of this series: Liquid, Ebulliometric method (Recirculating still).

SMILES strings stand for the structures. Numbers after ± are expanded uncertainties.

As a reminder, the vapor or sublimation pressure is the equilibrium pressure above the liquid or solid. Consider `CCC(=O)OC` [methyl propanoate], for which the “vapor or sublimation pressure” value (352.62 K) was 101.3 ± 3.7 kPa. With `CO` [methanol], where the note is “337.68 K”, the “vapor or sublimation pressure” value is on record as 101.3 ± 3.7 kPa.

The values above are taken from the NIST ThermoML archive (doi:10.1016/j.jct.2019.01.004).
